Assay results: patent US10517889B2, “Modulators of SMAD7 expression” (Ionis Pharmaceuticals, Inc., priority 2017, dated 2019)
Strand notation (5' to 3'): a small letter for the sugar, then the base; units joined by * are phosphorothioate-linked, units joined directly phosphodiester-linked; [ ] holds rarer units or linkages, { } end groups; capitals alone tell only the bases. k = constrained ethyl (cEt); [5mC] = 5-methylcytosine; d = 2'-deoxy (DNA)

Each substance was assayed on human SMAD7 mRNA (assay: Antisense inhibition of human SMAD7 mRNA expression in Hep3B cells by 3-10-3 cEt gapmers, 10,000 nM, electroporation (Example 2)). Settings: Hep3B cells, 10,000 nM antisense oligonucleotide, electroporation, approximately 24 hours, RT-PCR primer probe set RTS5062, relative to untreated control cells.
Type: cell-based
How it was run: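 Hep3B, 20,000 cells/well; electroporation, 10,000 nM ASO; ~24 h. Readout: SMAD7 mRNA by qRT-PCR (RTS5062), RIBOGREEN-normalised; % inhibition vs untreated.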

Substance | % Inhibition
800037 (k[5mC]*kA*k[5mC]*d[5mC]*dA*dG*d[5mC]*dA*dG*d[5mC]*d[5mC]*dT*d[5mC]*kT*kG*kT; antisense) [compound 800037] | 0%
798853 (k[5mC]*k[5mC]*kA*d[5mC]*dA*d[5mC]*dA*d[5mC]*d[5mC]*dA*dT*d[5mC]*d[5mC]*kA*k[5mC]*k[5mC]; antisense) [compound 798853] | 7%
799918 (antisense k[5mC]*kA*kT*dT*dT*dA*dT*d[5mC]*dT*d[5mC]*dG*d[5mC]*d[5mC]*kA*kT*kG) [compound 799918] | 16%
799857 (kA*kG*kA*dA*d[5mC]*dT*dG*dA*dA*dA*dG*d[5mC]*dG*kG*k[5mC]*kG; antisense) [compound 799857] | 31%

Same assay, conditions: Hep3B cells, electroporation with 10,000 nM antisense oligonucleotide, approximately 24 hours, RTS5062, percent inhibition of SMAD7 mRNA relative to untreated control cells

Substance | % Inhibition
799682 (antisense kG*kG*kT*d[5mC]*d[5mC]*dA*dG*dG*dA*d[5mC]*dT*dG*dG*kT*k[5mC]*kT) [compound 799682] | 55%
799746 (antisense kA*kA*kT*dG*dG*dG*dA*dA*dA*dT*dA*dA*dG*kG*k[5mC]*kG) [compound 799746] | 59%
799789 (kA*k[5mC]*kA*d[5mC]*dA*dA*d[5mC]*d[5mC]*dA*dA*dA*dG*d[5mC]*kA*kG*kA; antisense) [compound 799789] | 44%
799842 (antisense kG*kA*kA*dA*dG*dA*dA*dT*dG*dG*dT*dG*dG*kG*kT*kG) [compound 799842] | 16%

Same assay, conditions: Hep3B cells, electroporation with 10,000 nM antisense oligonucleotide, approximately 24 hours, SMAD7 mRNA by RT-PCR (RTS5062), relative to untreated control cells

Substance | % Inhibition
830171 (antisense kT*kG*k[5mC]*dT*d[5mC]*dT*dG*dT*dT*dT*dG*dG*dA*k[5mC]*kA*kA) [compound 830171] | 26%
830133 (antisense kA*k[5mC]*kA*dA*dT*d[5mC]*dT*d[5mC]*d[5mC]*dT*dG*dG*dA*kA*kG*k[5mC]) [compound 830133] | 26%
798884 (k[5mC]*kG*kG*dT*dA*dA*dA*dG*d[5mC]*d[5mC]*d[5mC]*dG*dT*k[5mC]*k[5mC]*kA; antisense) [compound 798884] | 15%
800024 (k[5mC]*kA*kA*dG*dG*dA*d[5mC]*dT*dA*dA*dG*dG*dA*kA*kG*kA; antisense) [compound 800024] | 18%
772889 (k[5mC]*kT*k[5mC]*d[5mC]*dA*dT*dT*d[5mC]*dA*dT*dA*dA*dT*kA*kT*kT; antisense) [compound 772889] | 7%
830030 (antisense kA*k[5mC]*k[5mC]*dT*dA*dA*dT*dG*dT*d[5mC]*dA*dA*d[5mC]*kA*k[5mC]*kT) [compound 830030] | 36%
800100 (antisense kT*kG*k[5mC]*dA*dG*dA*dG*d[5mC]*dA*d[5mC]*dA*dG*dA*kT*kG*k[5mC]) [compound 800100] | 16%
830039 (antisense kT*kT*k[5mC]*d[5mC]*dT*dA*dT*dT*dG*dG*d[5mC]*dT*dG*kA*kT*k[5mC]) [compound 830039] | 51%
800009 (kT*kG*k[5mC]*dT*d[5mC]*dA*dT*dG*dA*dA*dT*dG*dA*kA*k[5mC]*kA; antisense) [compound 800009] | 51%
799940 (antisense k[5mC]*kT*kT*dT*dG*dA*dG*dG*dA*dG*d[5mC]*dA*dG*kG*kG*kT) [compound 799940] | 50%
830102 (kA*kG*k[5mC]*d[5mC]*d[5mC]*dG*d[5mC]*dT*d[5mC]*dT*d[5mC]*dA*dG*k[5mC]*k[5mC]*kA; antisense) [compound 830102] | 43%
830073 (kT*k[5mC]*kA*dG*dA*dT*d[5mC]*dA*dA*dA*dG*dG*dT*kA*kA*kG; antisense) [compound 830073] | 41%

Same assay, conditions: Hep3B cells, electroporation with 10,000 nM antisense oligonucleotide, approximately 24 hours, primer probe set RTS5062, relative to untreated control cells

Substance | % inhibition of SMAD7 mRNA expression | % Inhibition
798659 (k[5mC]*k[5mC]*k[5mC]*dA*d[5mC]*d[5mC]*d[5mC]*d[5mC]*dG*d[5mC]*dG*d[5mC]*dG*kG*k[5mC]*k[5mC]; antisense) [compound 798659] | 58% | –
799142 (antisense kG*kG*kG*dT*dT*dA*dT*dG*dA*d[5mC]*dG*dG*dA*k[5mC]*k[5mC]*kA) [compound 799142] | – | 38%
798709 (antisense kT*kG*k[5mC]*dG*d[5mC]*dT*d[5mC]*dG*dG*d[5mC]*dT*dG*dT*k[5mC]*k[5mC]*kG) [compound 798709] | 2% | –
799090 (antisense kG*kT*kG*dA*dG*d[5mC]*dA*dA*dT*dA*d[5mC]*dT*dG*kT*kG*kA) [compound 799090] | 49% | –
799058 (antisense kA*kG*k[5mC]*dA*dG*dG*d[5mC]*dT*d[5mC]*dG*d[5mC]*dT*dG*k[5mC]*kT*k[5mC]) [compound 799058] | – | 0%
799242 (k[5mC]*kG*kT*dG*dA*dT*dT*d[5mC]*dT*d[5mC]*d[5mC]*dG*dT*kA*kT*kT; antisense) [compound 799242] | 0% | –
799052 (antisense k[5mC]*kT*kG*dT*dG*dG*dA*d[5mC]*dA*dG*dG*d[5mC]*d[5mC]*k[5mC]*kG*kT) [compound 799052] | 40% | –
798986 (antisense kG*kA*kT*dG*dA*d[5mC]*d[5mC]*dG*d[5mC]*d[5mC]*d[5mC]*d[5mC]*d[5mC]*k[5mC]*kT*kT) [compound 798986] | 34% | –
799439 (antisense kA*kA*kG*dA*dG*dG*dG*dA*d[5mC]*d[5mC]*dT*d[5mC]*dG*kG*kT*kT) [compound 799439] | 0% | –
799262 (antisense k[5mC]*kT*k[5mC]*dT*dT*dT*dG*d[5mC]*d[5mC]*d[5mC]*d[5mC]*dA*dA*kA*kA*k[5mC]) [compound 799262] | 0% | –
799438 (antisense kA*kA*kG*dA*dG*dA*dG*dA*dA*dA*d[5mC]*dG*d[5mC]*kA*kG*kT) [compound 799438] | 32% | –
799340 (kA*kG*kA*dT*dA*d[5mC]*d[5mC]*d[5mC]*dA*dG*dT*dT*d[5mC]*kG*kG*k[5mC]; antisense) [compound 799340] | 0% | –
799480 (antisense k[5mC]*kA*k[5mC]*dA*d[5mC]*dA*dG*dG*d[5mC]*dA*dA*d[5mC]*d[5mC]*kA*k[5mC]*kA) [compound 799480] | 45% | –
799417 (antisense kG*kG*k[5mC]*d[5mC]*dA*dA*dA*d[5mC]*dA*dT*dT*d[5mC]*dT*k[5mC]*k[5mC]*k[5mC]) [compound 799417] | 26% | –
799018 (k[5mC]*kT*kG*d[5mC]*dA*dA*dA*d[5mC]*d[5mC]*dT*d[5mC]*dT*d[5mC]*kT*kG*k[5mC]; antisense) [compound 799018] | – | 29%

Same assay, conditions: Hep3B cells, electroporation, 10,000 nM antisense oligonucleotide, approximately 24 hours, RTS5062, relative to untreated control cells

Substance | % inhibition of SMAD7 mRNA expression
799659 (antisense kA*kA*kA*dT*dA*dA*d[5mC]*dT*dA*d[5mC]*dA*dA*dG*kT*kG*kG) [compound 799659] | 57%
799720 (antisense kA*k[5mC]*kA*d[5mC]*dA*d[5mC]*dA*dG*d[5mC]*dA*dG*dA*dA*kG*kG*k[5mC]) [compound 799720] | 40%
799675 (antisense kT*k[5mC]*k[5mC]*d[5mC]*dA*dG*dT*dT*d[5mC]*dA*dT*dG*dA*kT*k[5mC]*kA) [compound 799675] | 0%
799700 (antisense k[5mC]*kA*kT*dG*dA*d[5mC]*dA*dG*d[5mC]*dA*dA*dA*dG*k[5mC]*kA*kA) [compound 799700] | 49%
799616 (kG*kG*k[5mC]*dT*d[5mC]*d[5mC]*dT*dA*d[5mC]*d[5mC]*d[5mC]*dG*d[5mC]*k[5mC]*k[5mC]*kA; antisense) [compound 799616] | 80%
799516 (antisense k[5mC]*kA*k[5mC]*d[5mC]*dA*dG*dA*dT*d[5mC]*dA*dA*dG*dA*k[5mC]*kA*kG) [compound 799516] | 0%
799617 (k[5mC]*kA*kA*d[5mC]*d[5mC]*dT*dG*d[5mC]*dA*dG*d[5mC]*d[5mC]*dA*kG*k[5mC]*kA; antisense) [compound 799617] | 50%

Same assay, conditions: SMAD7 mRNA, Hep3B cells, 10,000 nM antisense oligonucleotide, electroporation, approximately 24 hours, primer probe set RTS5062, relative to untreated control cells

Substance | % Inhibition
829759 (antisense k[5mC]*k[5mC]*kG*d[5mC]*d[5mC]*dA*d[5mC]*d[5mC]*dG*dG*d[5mC]*d[5mC]*d[5mC]*k[5mC]*kA*kT) [compound 829759] | 51%
829753 (antisense kT*k[5mC]*k[5mC]*d[5mC]*d[5mC]*dG*d[5mC]*dA*dG*d[5mC]*dT*d[5mC]*dG*k[5mC]*k[5mC]*kT) [compound 829753] | 29%
829743 (antisense kA*k[5mC]*kG*d[5mC]*d[5mC]*dG*dG*dA*d[5mC]*dG*dA*dG*d[5mC]*kG*k[5mC]*kA) [compound 829743] | 25%
772614 (kG*kA*k[5mC]*dT*d[5mC]*dT*dT*dG*dT*dT*dG*dT*d[5mC]*k[5mC]*kG*kA; antisense) [compound 772614] | 43%

Same assay, conditions: SMAD7 mRNA, Hep3B cells, electroporation with 10,000 nM antisense oligonucleotide, approximately 24 hours, primer probe set RTS5062, relative to untreated control cells

Substance | % Inhibition
829806 (kG*kA*k[5mC]*dT*d[5mC]*dT*dA*dG*dT*dT*d[5mC]*dG*d[5mC]*kA*kG*kA; antisense) [compound 829806] | 41%
829880 (antisense kT*k[5mC]*k[5mC]*dT*dG*dG*dA*dG*dT*d[5mC]*d[5mC]*dG*dG*kG*kT*kT) [compound 829880] | 32%
